Test [1] concerns HUVEC. The test can be described thus: Cytotoxicity against HUVEC after 72 hrs by MTT assay. The test is classed as cell-based. As to conditions: Homo sapiens. In general terms: Tetrazolium assays rely on reduction of a dye to a coloured formazan, in cell work by metabolically active cells.
Test [2] deals with HUVEC. The test can be described thus: Induction of apoptosis in HUVEC at 10 to 20 uM after 48 hrs by fluorescence assay. Format: functional, cell-based. As to conditions: Homo sapiens.
In test [3] the target is Somatostatin receptor type 5 (Homo sapiens, UniProt P35346). The test can be described thus: Binding affinity to human SSTR5.
Test [4] concerns HUVEC. The test can be described thus: Induction of cell cycle arrest in HUVEC assessed as accumulation at G2/M phase at 20 uM after 24 hrs by flow cytometry. The test is classed as functional, Homo sapiens.
Test [5] concerns the target Somatostatin receptor type 4 (Homo sapiens, UniProt P31391). The test can be described thus: Binding affinity to human SSTR4.
Test [6] has as its system HUVEC. The test is described as follows: Induction of cell cycle arrest in HUVEC assessed as accumulation at G1 phase at 20 uM after 24 hrs by flow cytometry. Format: functional, Homo sapiens.
For test [7], the system named is HUVEC. The test can be described thus: Antiangiogenic activity in HUVEC assessed as partial inhibition of tube formation at 20 uM. The test is classed as functional, cell-based. As to conditions: Homo sapiens.
Another test has as its target Tubulin (Homo sapiens) (UniProt P68371+Q9H4B7+P0DPH7+P68366+Q13509+Q71U36+P04350+Q3ZCM7+P07437+P68363+Q9BQE3+Q6PEY2+Q13885+Q9BVA1+Q9BUF5). The test is described as follows: Inhibition of tubulin polymerization in HUVEC at 20 uM by fluorescence staining. The test is classed as cell-based.
Test [8] concerns HUVEC. The test can be described thus: Induction of apoptosis in HUVEC assessed as change in mitochondrial membrane potential at 10 to 20 uM after 48 hrs by JC1 staining. The test is classed as functional, cell-based. As to conditions: Homo sapiens.
Test [9] concerns HUVEC. The test can be described thus: Induction of cell cycle arrest in HUVEC assessed as accumulation at S phase at 20 uM after 24 hrs by flow cytometry. The test is classed as functional, Homo sapiens. A general note: In flow cytometry, cells or beads pass a laser one at a time.
Test [10] deals with HUVEC. The test can be described thus: Inhibition of HUVEC migration at 20 uM by scratch-wound healing assay. Format: functional, cell-based. As to conditions: Homo sapiens.
Test [11] has as its system HUVEC. The test is described as follows: Antiangiogenic activity in HUVEC assessed as complete inhibition of tube formation at 40 uM. The test is classed as functional, cell-based. As to conditions: Homo sapiens.

Calls of active or inactive are those of the source. No cut-off for these calls is given here.

Somatostatin receptor type 5, sequence (P35346 whole entry): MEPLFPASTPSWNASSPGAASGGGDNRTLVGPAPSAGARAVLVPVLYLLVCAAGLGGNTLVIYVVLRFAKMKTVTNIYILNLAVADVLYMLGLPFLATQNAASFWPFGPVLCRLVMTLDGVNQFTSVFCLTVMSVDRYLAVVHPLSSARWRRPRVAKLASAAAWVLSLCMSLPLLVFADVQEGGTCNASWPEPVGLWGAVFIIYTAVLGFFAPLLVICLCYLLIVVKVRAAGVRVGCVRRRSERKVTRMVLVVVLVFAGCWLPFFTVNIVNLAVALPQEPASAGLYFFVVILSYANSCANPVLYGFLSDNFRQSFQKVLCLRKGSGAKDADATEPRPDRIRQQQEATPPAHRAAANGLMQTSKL
Somatostatin receptor type 4, sequence (P31391 whole entry): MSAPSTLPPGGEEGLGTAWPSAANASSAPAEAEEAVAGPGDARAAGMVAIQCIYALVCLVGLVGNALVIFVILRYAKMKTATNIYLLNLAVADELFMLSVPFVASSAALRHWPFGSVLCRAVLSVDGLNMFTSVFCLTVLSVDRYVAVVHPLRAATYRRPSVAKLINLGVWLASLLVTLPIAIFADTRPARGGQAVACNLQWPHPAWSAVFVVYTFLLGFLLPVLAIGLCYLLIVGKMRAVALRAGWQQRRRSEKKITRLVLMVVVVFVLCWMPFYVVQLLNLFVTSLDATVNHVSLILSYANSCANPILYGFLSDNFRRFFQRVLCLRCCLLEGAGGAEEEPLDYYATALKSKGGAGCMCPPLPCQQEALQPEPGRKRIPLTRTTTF

As for `NCCCCCOC[C@@H]1[C@@H](OCc2ccccc2)[C@H](OCc2ccccc2)[C@@H](OCc2ccccc2)CN1CCc1c[nH]c2ccccc12`, the IC50 (in general, the concentration needed to halve the response being measured) with HUVEC [1] is 12.6 µM. The result with HUVEC [2] and in the test on HUVEC [8] was Active. For the same compound, the inhibition constant (Ki) (usually a measure of affinity in units of concentration, obtained from inhibition or displacement) in test [3] turned out to be 5 µM; in test [5], 4.4 µM. Besides, the values for the Activity with HUVEC [4], in the test on HUVEC [6] and with HUVEC [9] were 16.27%, 70.39% and 13.81%, respectively. Further, the inhibition result with HUVEC [7], on Tubulin (Homo sapiens), with HUVEC [10] and in the test on HUVEC [11] was “Active” each time.

The values are drawn from ChEMBL document CHEMBL1641483, “Biological study of a somatostatin mimetic based on the 1-deoxynojrimycin scaffold” (Bioorg Med Chem Lett, 2011).
